Read-outs that look alike come from different tables or passages of the source. Numbered stars: 1 amine (or outer) side, 2 acyl side, 3 side chain; on linkers, the order of the positions; unused ones are H or OH. Square brackets hold non-standard residues; d marks the D form. Side chains are listed from the residue outwards. Peptide text beside a SMILES is read from it. * marks the point of attachment. Isobutyryl(2-(3-CN-5-F-Ph)) = CC(C)(C(=O)*)c1cc(F)cc(C#N)c1; C20 diacid = O=C(O)CCCCCCCCCCCCCCCCCCC(=O)*; γGlu = O=C(O)[C@H](CCC(=O)[*:2])N[*:1]; AEEA = NCCOCCOCC(=O)O; Aib = CC(C)(N)C(=O)O; βAla = NCCC(=O)O
How the values were obtained:
[1] = Phase 1 SAD Cohorts 1-5: pharmacokinetics; settings: human, in vivo; for Vd/F: read-out: Vz/F
Protocol: The secondary objectives are: • To evaluate the pharmacokinetics of single-ascending doses of CT-388 in otherwise healthy overweight and obese adult participants; and • To evaluate the pharmacodynamic (PD) effect of a single dose of CT-388 on body weight and glucose homeostasis in both the fasted state and in the setting of a mixed meal tolerance test (MMTT) challenge in otherwise healthy overweight and obese adult participants.
• Cohort 1: One dose containing 0.5 mg of CT-388 or matched placebo administered subcutaneously in the abdomen • Cohort 2: One dose containing 2.0 mg of CT-388 or matched placebo administered subcutaneously in the abdomen • Cohort 3: One dose containing 5.0 mg of CT-388 or matched placebo administered subcutaneously in the abdomen • Cohort 4: One dose containing 7.5 mg of CT-388 or matched placebo administered subcutaneously in the abdomen • Cohort 5: One dose containing 6.0 mg of CT-388 or matched placebo administered subcutaneously in the abdomen
Time-concentration profiles following a single dose SC administration of CT-388 to participants in Cohort 1 (0.5 mg), Cohort 2 (2 mg), Cohort 3 (5 mg), Cohort 4 (7.5 mg) and Cohort 5 (6 mg) are shown in Table 8 below.

[2] = Phase 1 MD Cohorts 11 and 12: pharmacokinetics; settings: human, in vivo, SC QW
From the text: The secondary objectives of this study are: • To evaluate the pharmacokinetics of CT-388 across 12 consecutive weekly doses for Cohorts 11 and 14 (and additionally, up to 24 weeks for Cohorts 12 and 13); and • To evaluate the PD effect of CT-388 across 12 consecutive weekly doses for Cohorts 11 and 14 (and additionally up to 24 weeks for Cohorts 12 and 13) on body weight and glucose homeostasis in both the fasted state and in the setting of an OGTT in participants with or without T2DM. […] Cohorts 11 and 12 included participants who were obese without T2DM and cohort 13 included patients who were obese with T2DM. Endpoints of this study were safety, including TEAEs, labs, vitals and ECGs; PK, including CT-388 PK concentrations and parameters; and key PD endpoints, including week 12 ([…]) and week 24 ([…]): • a. body weight: % change; absolute change; • b. change in HbA1c, fasting glucose, fasting insulin, HOMA-IR; and • c. waist and hip circumference.

[3] = Cohort 1, single SC dose 0.5 mg, mean ± standard deviation
[4] = Cohort 2, single SC dose 2 mg, mean ± standard deviation
[5] = Cohort 3, single SC dose 5 mg, mean ± standard deviation
[6] = Cohort 4, single SC dose 7.5 mg, mean ± standard deviation
[7] = Cohort 5, single SC dose 6 mg, mean ± standard deviation

In the case of `CC[C@H](C)[C@H](NC(=O)[C@H](CC(C)C)NC(=O)[C@H](Cc1c[nH]c2ccccc12)NC(=O)[C@H](CCC(N)=O)NC(=O)[C@@H](NC(=O)[C@H](Cc1ccccc1)NC(=O)[C@H](C)NC(=O)[C@H](CCCCNC(=O)COCCOCCNC(=O)COCCOCCNC(=O)CC[C@H](NC(=O)CCCCCCCCCCCCCCCCCCC(=O)O)C(=O)O)NC(=O)[C@H](CCC(N)=O)NC(=O)[C@H](C)NC(=O)[C@@H](NC(=O)[C@H](CCCCN)NC(=O)[C@H](CC(=O)O)NC(=O)[C@H](CC(C)C)NC(=O)C(C)(C)NC(=O)[C@@H](NC(=O)[C@H](CO)NC(=O)[C@H](Cc1ccc(O)cc1)NC(=O)[C@H](CC(=O)O)NC(=O)[C@H](CO)NC(=O)[C@@H](NC(=O)[C@H](Cc1ccccc1)NC(=O)[C@@H](NC(=O)CNC(=O)[C@H](CCC(=O)O)NC(=O)CCNC(=O)C(C)(C)c1cc(F)cc(C#N)c1)[C@@H](C)O)[C@@H](C)O)[C@@H](C)CC)[C@@H](C)CC)C(C)C)C(=O)N[C@@H](C)C(=O)NCC(=O)NCC(=O)N1CCC[C@H]1C(=O)N[C@@H](CO)C(=O)N[C@@H](CO)C(=O)NCC(=O)N[C@@H](C)C(=O)N1CCC[C@H]1C(=O)N1CCC[C@H]1C(=O)N1CCC[C@H]1C(=O)N[C@@H](CO)C(N)=O` [CT-388] ({Isobutyryl(2-(3-CN-5-F-Ph))-βAla}-EGTFTSDYSI[Aib]LDKIAQK([AEEA-AEEA-γGlu-C20 diacid])AFVQWLIAGGPSSGAPPPS-NH2), the AUC(0-inf) [1, 3] is reported as 12900 ± 1090 ng·h/mL, the CL/F [1, 3] is reported as 0.65 mL/min and the Cmax [1, 3] is reported as 52.4 ± 10 ng/mL. It also gave an MRT last [1, 3] of 128 ± 8.2 h, a Vd/F [1, 3] of 5.8 ± 0.7 L and a half-life ([1]; Cohort 1, single SC dose 0.5 mg, range of minimum to maximum, read-out: t1/2 range) of 91.9 to 171 h. For the same compound, the AUC(0-inf) [1, 4] was 47400 ± 10600 ng·h/mL, the CL/F [1, 4] was 0.733 mL/min and the Cmax [1, 4] was 216 ± 51.4 ng/mL. It also gave an MRT last [1, 4] of 122 ± 5.6 h, a Vd/F [1, 4] of 7.7 ± 1.8 L and a half-life ([1]; Cohort 2, single SC dose 2 mg, range of minimum to maximum, read-out: t1/2 range) of 108 to 142 h. It also gave a CL/F ([1]; Cohort 3, single SC dose 5 mg, mean) of 0.64 mL/min, an AUC(0-inf) [1, 5] of 140000 ± 41700 ng·h/mL and a Cmax [1, 5] of 831 ± 263 ng/mL. For the same compound, the MRT last [1, 5] was 114 ± 2.3 h, the Vd/F [1, 5] was 6.8 ± 2.1 L and the half-life ([1]; Cohort 3, single SC dose 5 mg, range of minimum to maximum, read-out: t1/2 range) was 108 to 146 h. The CL/F ([1]; Cohort 4, single SC dose 7.5 mg, mean) was 0.547 mL/min, the AUC(0-inf) [1, 6] was 235000 ± 39000 ng·h/mL and the Cmax [1, 6] was 1160 ± 110 ng/mL. The MRT last [1, 6] was 119 ± 5.3 h, the Vd/F [1, 6] was 6.6 ± 1.3 L and the half-life ([1]; Cohort 4, single SC dose 7.5 mg, range of minimum to maximum, read-out: t1/2 range) was 117 to 151 h. The AUC(0-inf) [1, 7] was 100000 ± 15000 ng·h/mL, the CL/F [1, 7] was 0.99 mL/min and the Cmax [1, 7] was 552 ± 80.1 ng/mL. It also gave an MRT last [1, 7] of 122 ± 9.6 h, a Vd/F [1, 7] of 11 ± 1.2 L and a half-life ([1]; Cohort 5, single SC dose 6 mg, range of minimum to maximum, read-out: t1/2 range) of 101 to 141 h. The Tmax ([1]; SAD Cohorts 1-5, single SC dose, all except two individual cases) was > 24 h, the half-life ([1]; SAD Cohorts 1-5, single SC dose, read-out: t1/2 (median) (converted)) was ~120 h and the half-life [2] was ~150 h.
